These results are taken from PMC3444501, “Therapeutic Effects of Astragaloside IV on Myocardial Injuries: Multi-Target Identification and Network Analysis” (PLoS ONE, 2012).

In experiment [1] the target is angiotensin-converting enzyme (ACE) (Homo sapiens, UniProt P12821). The experiment is described as follows: ACE activity of HUVECs (hippuric acid release from HHL) after 20-min incubation with AGS-IV. The format is cell-based.
For a further experiment, the system named is T1, calcineurin (CN).
T1 construct: gene Ppp3ca; with calcineurin B (CnB, regulatory subunit)
As to the kind of experiment: calcineurin activity kit (RII phosphopeptide, malachite green) in rat VSMCs after 24-h pretreatment. It counts as cell-based.

Chain of angiotensin-converting enzyme (ACE) (P12821 30-1306): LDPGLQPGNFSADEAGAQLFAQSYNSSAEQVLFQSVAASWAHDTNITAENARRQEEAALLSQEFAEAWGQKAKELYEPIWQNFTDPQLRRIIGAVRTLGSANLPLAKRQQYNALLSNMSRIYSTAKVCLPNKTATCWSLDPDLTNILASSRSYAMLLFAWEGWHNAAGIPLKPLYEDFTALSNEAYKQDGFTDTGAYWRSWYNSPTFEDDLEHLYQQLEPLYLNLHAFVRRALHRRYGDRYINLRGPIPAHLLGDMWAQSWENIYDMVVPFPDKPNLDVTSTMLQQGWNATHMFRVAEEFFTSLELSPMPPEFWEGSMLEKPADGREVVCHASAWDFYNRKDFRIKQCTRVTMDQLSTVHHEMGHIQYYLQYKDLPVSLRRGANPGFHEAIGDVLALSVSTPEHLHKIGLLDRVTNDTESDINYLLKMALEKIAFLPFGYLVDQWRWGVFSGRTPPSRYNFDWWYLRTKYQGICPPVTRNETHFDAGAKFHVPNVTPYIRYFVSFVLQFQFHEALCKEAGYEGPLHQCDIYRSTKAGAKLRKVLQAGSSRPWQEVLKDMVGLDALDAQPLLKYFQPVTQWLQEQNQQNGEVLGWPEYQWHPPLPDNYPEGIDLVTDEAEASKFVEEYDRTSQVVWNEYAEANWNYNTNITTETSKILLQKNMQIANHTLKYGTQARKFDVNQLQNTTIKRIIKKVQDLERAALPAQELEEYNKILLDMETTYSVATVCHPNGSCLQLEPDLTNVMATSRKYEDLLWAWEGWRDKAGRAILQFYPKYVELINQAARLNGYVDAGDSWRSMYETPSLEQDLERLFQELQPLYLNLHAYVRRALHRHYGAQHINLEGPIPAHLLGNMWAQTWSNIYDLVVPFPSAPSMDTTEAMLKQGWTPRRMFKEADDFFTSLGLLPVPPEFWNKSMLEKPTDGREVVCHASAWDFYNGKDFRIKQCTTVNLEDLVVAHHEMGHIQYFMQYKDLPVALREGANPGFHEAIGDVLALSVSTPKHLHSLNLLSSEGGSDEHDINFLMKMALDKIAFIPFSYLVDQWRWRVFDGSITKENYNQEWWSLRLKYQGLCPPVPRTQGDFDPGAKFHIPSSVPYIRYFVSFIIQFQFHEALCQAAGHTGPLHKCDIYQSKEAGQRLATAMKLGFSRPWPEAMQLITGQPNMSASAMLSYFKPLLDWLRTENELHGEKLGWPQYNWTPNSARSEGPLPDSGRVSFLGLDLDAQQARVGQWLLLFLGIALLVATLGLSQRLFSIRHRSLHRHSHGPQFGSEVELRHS

What is called IC50 is the midpoint of a concentration-inhibition curve. As for `CC(C)(O)[C@@H]1CC[C@](C)([C@H]2[C@@H](O)C[C@@]3(C)[C@@H]4C[C@H](O[C@@H]5O[C@H](CO)[C@@H](O)[C@H](O)[C@H]5O)[C@H]5C(C)(C)[C@@H](O[C@@H]6OC[C@@H](O)[C@H](O)[C@H]6O)CC[C@@]56C[C@@]46CC[C@]23C)O1` [AGS-IV, Astragaloside IV], the IC50 in experiment [1] was determined as 0.268 µM; in the experiment with calcineurin (CN), 0.403 µM.
